Assay results as given in patent publication US11173146B2, “Selective activators of the intermediate conductance CA2+activated K+ channel KCa3.1 and their methods of use” (The Regents of the University of California, priority 2014, dated 2021).
Several values for one entry are separate records, joined by “and”; a condition that tells them apart may be missing. Equal entries are not always repeated. Entries after “also recorded” stand apart in the source; their conditions may differ. Where two headings read alike, the source gives them in different places.

Key:
KCa3.1 [1] = molecular target: T1, KCa3.1 (Homo sapiens, UniProt O15554+P0DP23); assay: Whole-cell patch-clamp KCa3.1 activation (QPatch, HEK-293); format: cell-based; parameters: host or cells: HEK-293
Description: Cells, Cell lines and Clones. […] The cloning of hKCa2.3 (19 CAG repeats) and hKCa3.1 has been previously described (Wulff et al., 2000). The hKCa2.3 clone was later stably expressed in COS-7 cells at Aurora Biosciences Corp., San Diego, Calif. Cell lines stably expressing other mammalian ion channels were gifts from several sources: hKCa1.1 in HEK-293 cells (Andrew Tinker, University College London); hKV2.1 in HEK293 cells (James Trimmer, UC Davis); KV11.1 (HERG) in HEK-293 cells (Craig January, University of Wisconsin, Madison); hNaV1.4 in HEK-293 cells (Frank Lehmann-Horn, University of Ulm, Germany), hNaV1.5 in HEK-293 cells (Christopher Lossin, University of California Davis), and hCaV1.2 in HEK-293 cells (Franz Hofmann, Munich, Germany).
Electrophysiology. Experiments were conducted either manually with an EPC-10 amplifier (HEKA, Lambrecht/Pfalz, Germany) or on a QPatch-16 automated electrophysiology platform (Sophion Biosciences, Denmark). […] Patch pipettes were pulled from soda lime glass (micro-hematocrit tubes, Kimble Chase, Rochester, N.Y.) and had resistances of 2-3 MΩ. […] Free Ca^2+ concentrations were calculated with MaxChelator assuming a temperature of 25° C., a pH of 7.2 and an ionic strength of 160 mM. […] Na^+ aspartate Ringer was used as an external solution (in mM): 160 Na^+ aspartate, 4.5 KCl, 2 CaCl2, 1 MgCl2, 5 HEPES, pH 7.4, 290-310 mOsm. […] Reduction of both peak and tail current by the drug was determined. NaV1.7 currents were recorded with 30 ms pulses from −90 mV to −10 mV every 10 sec with a CsF-based pipette solution and normal Ringer as an external solution. CaV1.2 currents were elicited by 100-ms depolarizing pulses from −80 to 20 mV every 10 sec with a CsCl-based pipette solution and an external solution containing 30 mM BaCl2. Blockade of both Na^+ and Ca^2+ currents was determined as reduction of the current minimum.
For automated electrophysiology experiments cells were grown to ˜70% confluency, rinsed in sterile PBS containing 0.02% EDTA, and lifted with 2 mL of TrypLE™ Express (Gibco, Grand Island, N.Y.) for ˜2 min. When cells were rounded but not detached, they were dislodged by gentle tapping, suspended in DMEM, centrifuged and resuspended in 1 ml of external solution, placed into the Qfuge tube and resuspended in 150-200 μL extracellular solution after one additional spin on the QPatch. Whole-cell patch-clamp experiments were then carried out using disposable 16-channel planar patch chip plates (QPlates; patch hole diameter approximately 1 μm, resistance 2.00±0.02 MΩ). […] In order to avoid rejection of cells with large KCa3.1 currents the minimum seal resistance for whole-cell requirement was lowered to 0.001 GΩ. […] Following establishment of the whole-cell configuration, cells were held at −80 mV and KCa3.1, KCa2.1 or KCa2.2 currents elicited by a voltage protocol that held at −80 mV for 20 ms, stepped to −120 mV for 20 ms, ramped from −120 to 40 mV in 200 ms and then stepped back to −120 mV for 20 ms. This pulse protocol was applied every 10 s. […] NaV1.2 currents from N1E-115 cells, NaV1.4 and NaV1.5 currents from stably transfected HEK cells were recorded with 20 ms pulses from −90 mV to 0 mV every 10 sec with a KF-based internal solution and normal Ringer as an external solution. Current slopes (in ampere per sec) were measured using the SophionQPatch software and exported to Microsoft Excel and Origin 7.0 (OriginLab Corp. MA) for analysis. […] Data fitting to the Hill equation to obtain EC50 and IC50 values was performed with Origin 7.0. Data are expressed as mean±SD.

KCa3.1−/− mice = assay: Telemetry in KCa3.1−/− mice; conditions: 100 mg/kg i.p.
KCa3.1 [2] = molecular target: T1, KCa3.1; assay: Inside-out patch Ca2+ concentration-response of KCa3.1

SMILES: Cc1cc2nc(N)oc2c2ccccc12 [SKA-121, 5-Methylnaphtho[2,1-d]oxazol-2-amine]
- maximal KCa3.1 current increase (KCa3.1 [1]; 250 nM free Ca2+): roughly 30 fold
- EC50 (KCa3.1 [1]; 250 nM free Ca2+, read-out: EC50 for KCa3.1 activation): 109 nM and 111 nM and ~110 nM
- EC50 (KCa3.1 [1]; Appendix A, read-out: KCa3.1 EC50 (converted)): 200 nM
- Hill coefficient nH, KCa3.1 concentration-response curve (KCa3.1 [1]; FIG. 4 legend): 3.0
- selectivity for KCa3.1 over the three KCa2 channels (KCa3.1 [1]; KCa2.1, KCa2.2 and KCa2.3): 40-80 fold
- EC50 (KCa3.1 [1]; Table 1, 250 nM free Ca2+, read-out: KCa3.1 EC50 (converted)): 109 nM
- selectivity for KCa3.1 over KCa2.3 (KCa3.1 [1]; ratio of EC50 values): ~40 fold
- HR (KCa3.1−/− mice): did not; also recorded: no significant effects
- MAP (KCa3.1−/− mice): did not; also recorded: no significant effects
- maximal achievable KCa3.1 current (KCa3.1 [2]; 1 μM SKA-121, at 1 and 10 μM Ca2+): increased the maximal achievable current
- Hill coefficient of the Ca2+ concentration-response curve (KCa3.1 [2]; in presence of 1 μM SKA-121): ~3
